# Where two headings read alike, the source gives them in different places.
# Key:
# [1] = test system: NZB/W F1 mice; conditions: prophylactic and therapeutic model; cited from earlier work
# [2] = test system: phospho-AKT in RAW 264.7 cells (PI3Kγ); experiment: PI3Kγ selective cellular assay: phospho-AKT in C5a stimulated RAW 264.7 cells; assay type: cell-based; conditions: Mus musculus
# Excerpt: A compound's ability in selectively inhibiting PI3Kγ can be assessed using RAW264.7 macrophages. Briefly, serum-starved PAW264.7 cells are stimulated with a known GPCR agonist C5a. (See, e.g., Camps et al., Nature Medicine (2005) 11(9): 936-943). Cells can be treated with test compounds prior to, simultaneously with, or subsequent to the stimulation by C5a. RAW 264.7 cells respond to the complement component fragment C5a through activation of the C5a receptor, and the C5a receptor activates macrophages and induces cell migration. Test compounds' ability to inhibit C5a-mediated AKT phosphorylation is indicative of selective inhibition of PI3Kγ. Thus, by monitoring the reduction of phospho-AKT in stimulated RAW 264.7 cells (using for example, phospho-AKT antibodies), a compound's potential efficacy in selectively inhibiting PI3Kγ can be assessed.
# Certain compounds provided herein (e.g., Compounds I-21, I-86, I-87, I-91, I-106, and III-13) were tested in RAW 264.7 cell model using procedures as described above.
# [3] = test system: Balb/c splenic B cells; experiment: B cell activation and proliferation assay (Alamar Blue); assay type: cell-based; conditions: Mus musculus, 'Less than 100 nM'
# In short: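 Balb/c splenic B cells (Ficoll, then MACS purification; 50,000/well) were preincubated 30 min with compound at 0.2% final DMSO. They were then stimulated 72 h at 37 °C with a cocktail of 10 μg/ml LPS, or 5 μg/ml anti-mouse F(ab′)2 plus 2 ng/ml mouse IL4. Alamar Blue was read after 5 h at 560Ex/590Em, giving IC50 or EC50.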
# [4] = biological target: PI3Kβ; experiment: PI3 Kinase HTRF assay, PI3Kβ; assay type: biochemical, human; conditions: 10 μM PIP2, 10 μM ATP; 'Greater than 10 μM' and 'Greater than 1 μM to 10 μM'; read-out: PI3K β IC50
# In short: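 Recombinant PI3Kβ converting PIP2 (10 μM) to PIP3 with 10 μM ATP; PIP3 detected by competitive HTRF displacement of biotin-PIP3/GST-GRP1 PH domain complex. Emission ratios converted to % inhibition; IC50 by nonlinear regression.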
# [5] = biological target: T1, PI3Kα (Homo sapiens, UniProt P42336); experiment: PI3 Kinase HTRF assay, PI3Kα; assay type: biochemical; conditions: 10 μM PIP2, 10 μM ATP; 'Greater than 10 μM' and 'Greater than 1 μM to 10 μM'; read-out: PI3K α IC50
# T1 construct: purchased Millipore Corporation 14-602-K
# In short: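 Recombinant PI3K converts 10 μM PIP2 with 10 μM ATP, 1 h at room temperature after 15 min compound preincubation, 2% DMSO. PIP3 detected by competitive HTRF with GRP1 PH domain; IC50 by nonlinear regression over 12 points, 20 μM to 0.1 nM.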
# [6] = test system: phospho-AKT in 786-O cells (PI3Kβ); experiment: PI3Kβ selective cellular assay: phospho-AKT in 786-O cells; assay type: cell-based; conditions: Homo sapiens, 786-0, read-out: IC50 for phospho-AKT, 786-O cell model
# Excerpt: A compound's ability in selectively inhibiting PI3Kβ can be assessed using 786-O cells, i.e., human kidney carcinoma cell line. Briefly, 786-O cells, in which PI3Kβ is constitutively active, can be treated with test compounds. Test compounds' ability to inhibit AKT phosphorylation in 786-O cells, therefore, is indicative of selective inhibition of PI3Kβ. Thus, by monitoring the reduction of phospho-AKT in 786-O cells (using for example, phospho-AKT antibodies), a compound's potential efficacy in selectively inhibiting PI3Kβ can be assessed.
# Certain compounds provided herein (e.g., Compounds I-21, I-86, I-87, I-91, and III-13) were tested in 786-O cell model using procedures as described above.
# [7] = test system: phospho-AKT in SKOV-3 cells (PI3Kα); experiment: PI3Kα selective cellular assay: phospho-AKT in SKOV-3 cells; assay type: cell-based; conditions: Homo sapiens
# Excerpt: A compound's ability in selectively inhibiting PI3Kα can be assessed using SKOV-3 cells, i.e., human ovarian carcinoma cell line. Briefly, SKOV-3 cells, in which mutant PI3Kα is constitutively active, can be treated with test compounds. Test compounds' ability to inhibit AKT phosphorylation in SKOV-3 cells, therefore, is indicative of selective inhibition of PI3Kα. Thus, by monitoring the reduction of phospho-AKT in SKOV-3 cells (using for example, phospho-AKT antibodies), a compound's potential efficacy in selectively inhibiting PI3Kα can be assessed.
# Certain compounds provided herein (e.g., Compounds I-21, I-86, I-87, I-91, and III-13) were tested in SKOV-3 cell model using procedures as described above.
# [8] = test system: phospho-AKT in RAJI cells (PI3Kδ); experiment: PI3Kδ selective cellular assay: phospho-AKT in anti-human IgM stimulated RAJI cells; assay type: cell-based; conditions: read-out: IC50 for phospho-AKT, RAJI cell model
# Excerpt: A compound's ability in selectively inhibiting PI3Kδ can be assessed using RAJI cells, i.e., B lymphocyte cells derived from lymphoma patients. Briefly, serum-starved RAJI cells are stimulated with anti-human IgM, thereby causing signaling through the B-cell receptors, as described in, for example, He et al., Leukemia Research (2009) 33: 798-802. B-cell receptor signaling is important for the activation, differentiation, and survival of B cells and certain B-cell derived cancers. Reduction of phospho-AKT is indicative of compounds that may inhibit B-cell proliferation and function in certain diseases. By monitoring the reduction of phospho-AKT in stimulated RAJI cells (using for example, phospho-AKT antibodies), a compound's potential efficacy in selectively inhibiting PI3Kδ can be assessed.
# Certain compounds provided herein (e.g., Compounds I-21, I-86, I-87, I-91, I-106, and III-13) were tested in RAJI cell model using procedures as described above.
# [9] = test system: B6.Sle1z.Sle3z model; conditions: cited from earlier work
# [10] = control compounds, 5 μM; cited from earlier work
# [11] = test system: p190 transduced leukemic cells in mice; conditions: about 70 mg/kg twice daily; cited from earlier work
# [12] = PBS pH 7.4, 37° C., 24 hours; cited from earlier work
# [13] = RAW264.7, read-out: IC50 for phospho-AKT, RAW 264.7 cell model
# [14] = SK-OV-3, read-out: IC50 for phospho-AKT, SKOV-3 cell model
# [15] = RAW264.7, range with units in value, read-out: IC50 for phospho-AKT, RAW 264.7 cell model
# T1 sequence (P42336 whole entry): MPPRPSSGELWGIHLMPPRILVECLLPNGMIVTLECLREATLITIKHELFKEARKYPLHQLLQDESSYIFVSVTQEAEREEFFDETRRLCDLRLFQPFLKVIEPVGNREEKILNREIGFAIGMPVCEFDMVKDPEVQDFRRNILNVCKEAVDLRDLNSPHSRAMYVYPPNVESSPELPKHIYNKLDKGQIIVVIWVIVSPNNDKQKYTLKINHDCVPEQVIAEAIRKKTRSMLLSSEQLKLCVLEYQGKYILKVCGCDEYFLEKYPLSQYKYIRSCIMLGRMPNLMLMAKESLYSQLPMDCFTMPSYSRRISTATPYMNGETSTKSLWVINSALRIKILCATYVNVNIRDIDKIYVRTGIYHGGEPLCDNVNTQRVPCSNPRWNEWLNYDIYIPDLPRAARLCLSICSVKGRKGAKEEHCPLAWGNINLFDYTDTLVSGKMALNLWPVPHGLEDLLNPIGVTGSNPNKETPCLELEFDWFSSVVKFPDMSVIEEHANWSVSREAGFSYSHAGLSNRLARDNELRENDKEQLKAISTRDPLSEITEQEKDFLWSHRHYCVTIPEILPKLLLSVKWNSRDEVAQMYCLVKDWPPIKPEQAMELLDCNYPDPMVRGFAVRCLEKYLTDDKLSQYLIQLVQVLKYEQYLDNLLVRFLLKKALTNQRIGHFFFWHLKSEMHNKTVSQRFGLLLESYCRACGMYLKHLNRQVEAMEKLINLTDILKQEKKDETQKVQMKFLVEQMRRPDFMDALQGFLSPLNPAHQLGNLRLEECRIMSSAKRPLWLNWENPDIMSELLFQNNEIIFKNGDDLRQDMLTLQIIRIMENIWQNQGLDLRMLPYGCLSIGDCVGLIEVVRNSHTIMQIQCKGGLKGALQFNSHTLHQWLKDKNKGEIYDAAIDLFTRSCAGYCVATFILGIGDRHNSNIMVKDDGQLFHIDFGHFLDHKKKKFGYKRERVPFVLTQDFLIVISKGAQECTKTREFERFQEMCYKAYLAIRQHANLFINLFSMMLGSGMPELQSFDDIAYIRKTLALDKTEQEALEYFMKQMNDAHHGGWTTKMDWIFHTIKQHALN
# T1 sequence (P27986 whole entry partner): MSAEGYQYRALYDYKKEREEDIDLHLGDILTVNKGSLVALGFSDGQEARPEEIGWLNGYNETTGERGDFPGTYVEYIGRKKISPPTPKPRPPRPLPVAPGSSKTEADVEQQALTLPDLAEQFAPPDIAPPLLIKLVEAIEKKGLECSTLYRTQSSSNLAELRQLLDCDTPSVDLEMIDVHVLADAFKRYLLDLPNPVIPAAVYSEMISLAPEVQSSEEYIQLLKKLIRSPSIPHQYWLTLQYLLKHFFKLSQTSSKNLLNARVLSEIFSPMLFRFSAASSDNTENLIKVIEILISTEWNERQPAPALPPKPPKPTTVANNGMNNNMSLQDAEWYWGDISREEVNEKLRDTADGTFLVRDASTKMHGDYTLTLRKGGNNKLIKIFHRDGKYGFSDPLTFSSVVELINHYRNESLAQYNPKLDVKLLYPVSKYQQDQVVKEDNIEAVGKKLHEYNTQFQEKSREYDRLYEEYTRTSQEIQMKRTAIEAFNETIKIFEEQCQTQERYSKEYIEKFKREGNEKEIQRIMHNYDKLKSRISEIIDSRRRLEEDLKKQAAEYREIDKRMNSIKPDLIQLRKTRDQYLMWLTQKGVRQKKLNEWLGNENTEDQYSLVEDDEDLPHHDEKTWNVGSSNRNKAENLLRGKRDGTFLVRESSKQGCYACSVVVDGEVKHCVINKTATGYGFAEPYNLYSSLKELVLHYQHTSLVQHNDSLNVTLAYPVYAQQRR
# PI3Kβ, sequence (Q8BTI9 whole entry, the tested form may be a part): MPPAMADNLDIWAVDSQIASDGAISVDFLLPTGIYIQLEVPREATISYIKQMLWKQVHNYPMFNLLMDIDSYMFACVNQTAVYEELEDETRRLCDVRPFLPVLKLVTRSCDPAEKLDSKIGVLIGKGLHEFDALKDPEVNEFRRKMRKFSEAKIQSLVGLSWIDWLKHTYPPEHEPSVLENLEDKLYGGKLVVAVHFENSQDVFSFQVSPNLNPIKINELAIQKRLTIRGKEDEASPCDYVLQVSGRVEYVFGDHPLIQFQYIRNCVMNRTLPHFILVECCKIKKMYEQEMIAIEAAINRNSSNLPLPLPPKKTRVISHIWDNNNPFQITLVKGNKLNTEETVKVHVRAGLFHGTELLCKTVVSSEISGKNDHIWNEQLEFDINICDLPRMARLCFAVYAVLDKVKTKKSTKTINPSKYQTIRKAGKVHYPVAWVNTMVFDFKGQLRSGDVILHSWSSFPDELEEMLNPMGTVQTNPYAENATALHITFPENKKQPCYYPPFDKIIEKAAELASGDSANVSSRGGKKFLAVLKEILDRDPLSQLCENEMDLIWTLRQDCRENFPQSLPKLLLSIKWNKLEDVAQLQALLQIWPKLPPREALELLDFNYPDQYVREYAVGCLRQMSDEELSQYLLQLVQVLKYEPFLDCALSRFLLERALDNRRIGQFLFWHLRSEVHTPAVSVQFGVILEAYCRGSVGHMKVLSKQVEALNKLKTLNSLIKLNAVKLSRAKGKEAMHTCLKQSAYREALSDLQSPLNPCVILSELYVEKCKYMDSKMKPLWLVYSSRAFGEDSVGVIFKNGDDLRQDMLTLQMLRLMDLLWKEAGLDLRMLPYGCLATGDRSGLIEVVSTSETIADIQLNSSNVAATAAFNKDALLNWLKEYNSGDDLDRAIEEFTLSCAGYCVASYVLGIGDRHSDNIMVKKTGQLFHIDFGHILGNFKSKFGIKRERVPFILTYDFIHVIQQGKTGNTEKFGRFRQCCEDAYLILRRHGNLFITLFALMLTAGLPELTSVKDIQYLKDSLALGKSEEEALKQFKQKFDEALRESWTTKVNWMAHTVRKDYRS
SMILES,EC50 [3],IC50 [4],IC50 [5],IC50 [6],"IC50 [7, 14]",IC50 [8],other results
"CC(C)C[C@H](NC(=O)[C@H](Cc1ccccc1)NC(=O)c1cnccn1)B(O)O [Bortezimib, bortezomib]",,,,,,,disease in the NZB/W model [1]: effective at blocking disease in the NZB/W model
COc1ncc(-c2cccc3nc([C@H](C)Nc4nc(N)nc5cccnc45)n(-c4ccccc4)c(=O)c23)cn1 [Compound I-86],< 100 nM,> 10 µM,1 to 10 µM,1 to 10 µM,1000 to 10000 nM,< 100 nM,"IC50 [2, 13]: < 100 nM"
C[C@H](Nc1nc(N)nc2cccnc12)c1nc2cccc(-c3cnn(C)c3)c2c(=O)n1-c1ccccc1 [Compound I-87],< 100 nM,> 10 µM,1 to 10 µM,1 to 10 µM,,< 100 nM,"IC50 [2, 13]: < 100 nM; IC50 ([7]; SK-OV-3, range with units in value, read-out: IC50 for phospho-AKT, SKOV-3 cell model): 100 to 1000 nM"
C[C@H](Nc1ncnc2[nH]cnc12)c1cc2cccc(C(F)(F)F)c2c(=O)n1-c1cccc(F)c1 [III-13],< 100 nM,1 to 10 µM,1 to 10 µM,1 to 10 µM,1000 to 10000 nM,< 100 nM,"IC50 [2, 15]: 100 to 1000 nM"
"CO[C@H]1C[C@@H]2CC[C@@H](C)[C@@](O)(O2)C(=O)C(=O)N2CCCC[C@H]2C(=O)O[C@H]([C@H](C)C[C@@H]2CC[C@@H](OCCO)[C@H](OC)C2)CC(=O)[C@H](C)/C=C(\C)[C@@H](O)[C@@H](OC)C(=O)[C@H](C)C[C@H](C)/C=C/C=C/C=C/1C [RAD001, everolimus]",,,,,,,lupus symptoms [9]: ameliorate lupus symptoms
C[C@H](Nc1ncnc2cccnc12)c1cc2cccc(-c3cnn(C)c3)c2c(=O)n1-c1ccccc1 [Compound I-21],< 100 nM,> 10 µM,1 to 10 µM,1 to 10 µM,1000 to 10000 nM,< 100 nM,"IC50 [2, 15]: 100 to 1000 nM"
CC(C)[N+](C)(CCOC(=O)C1c2ccccc2Oc2ccccc21)C(C)C [propantheline],,,,,,,plasma stability [10]: intermediate plasma stability
Cc1ccc(NC(=O)c2ccc(CN3CCN(C)CC3)cc2)cc1Nc1nccc(-c2cccnc2)n1 [imatinib],,,,,,,leukemogenesis [11]: delay but not cure leukemogenesis
CCCOc1cc(N)ccc1C(=O)OCCN(CC)CC [propoxycaine],,,,,,,plasma stability [10]: low plasma stability
"Cc1ncc(-c2cccc3nc([C@H](C)Nc4nc(N)nc5cccnc45)n(-c4ccccc4)c(=O)c23)cn1 [Compound I-91, (S)-2-(1-((2-aminopyrido[3,2-d]pyrimidin-4-yl)amino)ethyl)-5-(2-methylpyrimidin-5-yl)-3-phenylquinazolin-4(3H)-one]",< 100 nM,> 10 µM,1 to 10 µM,1 to 10 µM,1000 to 10000 nM,< 100 nM,"IC50 [2, 13]: < 100 nM"
O=C(O)CCCc1ccc(N(CCCl)CCCl)cc1 [chlorambucil],,,,,,,chemical stability [12]: largely hydrolyzed over the course of 24 hours

# Reference: patent publication US8969363B2, “Heterocyclic compounds and uses thereof” (Infinity Pharmaceuticals, Inc., priority 2011, dated 2015)
